In patent US12612410B2 (CHILDREN'S HOSPITAL MEDICAL CENTER, priority 2020, dated 2026):

What was measured:
MOLM14 D835Y cells = assay: MOLM14 D835Y cell viability assay (Cell Titer Glo); format: cell-based
Outline: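 MOLM14 cells carrying FLT3 D835Y or F691L were seeded at 1000 cells/well in RPMI-1640 with 20% FBS and dosed at 22 concentrations, 1:2 dilutions from 10 μM. Viability after 48 h by Cell Titer Glo luminescence; 2.3 μM bortezomib as cytotoxic control.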

IRAK1 = biological target: T1, IRAK1 (Homo sapiens, UniProt P51617); assay: RBC HotSpot Kinase Assay, IRAK1; format: biochemical; details: isolated kinase, 33P-ATP
T1 construct: purchased Reaction Biology (RBC), HotSpot kinase assay
Outline: (§1)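 Radiometric filter-binding activity assay with isolated, possibly truncated kinases in 20 mM Hepes pH 7.5, 10 mM MgCl2, 1 mM EGTA, 2 mM DTT, 1% DMSO plus cofactors. Compound preincubated with kinase and substrate 20 min, then 33P-ATP added for 2 h at room temperature.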

IRAK4 = biological target: T2, IRAK4 (Homo sapiens, UniProt Q9NWZ3); assay: RBC HotSpot Kinase Assay, IRAK4; format: biochemical; parameters: purchased Reaction Biology (RBC), HotSpot kinase assay; details: isolated kinase, 33P-ATP
T2 sequence (Q9NWZ3 1-460): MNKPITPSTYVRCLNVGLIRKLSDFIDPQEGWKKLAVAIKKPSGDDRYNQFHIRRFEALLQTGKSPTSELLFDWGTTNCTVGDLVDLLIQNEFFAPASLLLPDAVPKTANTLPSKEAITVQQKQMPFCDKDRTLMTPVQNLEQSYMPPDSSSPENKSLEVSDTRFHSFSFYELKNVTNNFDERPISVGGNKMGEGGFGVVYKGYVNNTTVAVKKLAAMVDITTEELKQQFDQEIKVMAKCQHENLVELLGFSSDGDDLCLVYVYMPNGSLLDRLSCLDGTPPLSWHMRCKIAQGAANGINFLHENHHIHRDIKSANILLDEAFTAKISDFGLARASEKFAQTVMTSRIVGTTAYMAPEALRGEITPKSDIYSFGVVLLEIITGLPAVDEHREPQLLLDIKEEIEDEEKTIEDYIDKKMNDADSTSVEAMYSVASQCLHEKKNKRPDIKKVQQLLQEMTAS
Outline: as §1

FLT3 = biological target: T3, FLT3 (Homo sapiens, UniProt P36888); assay: RBC HotSpot Kinase Assay, FLT3; format: biochemical; parameters: purchased Reaction Biology (RBC), HotSpot kinase assay; details: isolated kinase, 33P-ATP
T3 sequence (P36888 27-993): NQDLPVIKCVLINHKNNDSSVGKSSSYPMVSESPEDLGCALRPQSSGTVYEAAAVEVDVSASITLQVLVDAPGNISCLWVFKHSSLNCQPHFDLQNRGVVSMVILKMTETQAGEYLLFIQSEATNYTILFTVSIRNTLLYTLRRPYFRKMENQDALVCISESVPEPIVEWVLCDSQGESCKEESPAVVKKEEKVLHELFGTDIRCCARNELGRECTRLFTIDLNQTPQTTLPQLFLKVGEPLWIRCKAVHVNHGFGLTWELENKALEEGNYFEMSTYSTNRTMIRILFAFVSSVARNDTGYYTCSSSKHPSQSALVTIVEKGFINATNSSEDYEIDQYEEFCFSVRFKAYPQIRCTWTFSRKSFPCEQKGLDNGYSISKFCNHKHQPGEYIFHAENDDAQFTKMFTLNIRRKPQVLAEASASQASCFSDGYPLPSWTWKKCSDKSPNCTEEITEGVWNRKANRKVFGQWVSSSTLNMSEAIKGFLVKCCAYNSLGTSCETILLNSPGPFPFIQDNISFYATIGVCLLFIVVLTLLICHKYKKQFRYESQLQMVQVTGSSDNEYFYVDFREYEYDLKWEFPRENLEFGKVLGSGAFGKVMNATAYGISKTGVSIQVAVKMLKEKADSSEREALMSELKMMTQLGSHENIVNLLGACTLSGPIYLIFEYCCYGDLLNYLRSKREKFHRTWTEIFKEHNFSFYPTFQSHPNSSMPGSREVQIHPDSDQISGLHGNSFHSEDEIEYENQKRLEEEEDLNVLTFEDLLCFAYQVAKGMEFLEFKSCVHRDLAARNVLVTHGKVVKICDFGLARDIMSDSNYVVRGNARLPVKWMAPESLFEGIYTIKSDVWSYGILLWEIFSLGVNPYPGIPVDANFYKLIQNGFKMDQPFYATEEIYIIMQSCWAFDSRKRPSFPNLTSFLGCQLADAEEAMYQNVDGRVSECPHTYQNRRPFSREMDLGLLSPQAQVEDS
Outline: as §1

T1 sequence (P51617 whole entry): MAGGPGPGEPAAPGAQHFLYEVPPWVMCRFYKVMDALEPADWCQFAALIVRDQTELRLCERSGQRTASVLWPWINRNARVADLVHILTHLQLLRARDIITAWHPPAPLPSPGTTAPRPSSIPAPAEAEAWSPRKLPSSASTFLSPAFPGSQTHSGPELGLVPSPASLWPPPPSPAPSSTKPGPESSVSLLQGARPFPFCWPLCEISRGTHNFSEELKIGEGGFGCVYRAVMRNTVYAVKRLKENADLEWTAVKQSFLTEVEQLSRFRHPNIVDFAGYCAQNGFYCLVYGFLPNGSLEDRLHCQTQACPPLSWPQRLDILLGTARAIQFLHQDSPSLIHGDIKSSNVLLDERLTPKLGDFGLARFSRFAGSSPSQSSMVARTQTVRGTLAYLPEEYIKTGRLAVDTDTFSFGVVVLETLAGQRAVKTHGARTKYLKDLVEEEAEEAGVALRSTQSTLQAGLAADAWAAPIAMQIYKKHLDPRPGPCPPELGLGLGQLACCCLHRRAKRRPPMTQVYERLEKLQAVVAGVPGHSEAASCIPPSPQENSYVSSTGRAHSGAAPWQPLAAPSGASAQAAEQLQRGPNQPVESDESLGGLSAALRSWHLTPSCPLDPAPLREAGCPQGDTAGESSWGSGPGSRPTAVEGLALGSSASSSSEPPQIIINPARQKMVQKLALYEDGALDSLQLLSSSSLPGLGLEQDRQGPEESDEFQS

Compound | IC50 (MOLM14 D835Y cells; Homo sapiens, MOLM-14, 48 h) [nM] | IC50 (IRAK1) [nM] | IC50 (IRAK4) [nM] | IC50 (FLT3) [nM] | IC50 (MOLM14 D835Y cells; 48 hours) [nM]
O=C1CCCN1c1cn2c(-c3nc(N[C@@H]4CCCNC4)c(F)cc3F)cnc2cn1 [Compound 108, (R)-1-(3-(3,5-difluoro-6-(piperidin-3-ylamino)pyridin-2-yl)imidazo[1,2-a]pyrazin-6-yl)pyrrolidin-2-one] | 26 | 109 | 13 | 0.9 | –
CC(C)(C)c1cn2c(-c3nc(N[C@H]4CNCC[C@@H]4F)c(F)cc3F)cnc2cn1 [Compound 127, 6-(6-(tert-butyl)imidazo[1,2-a]pyrazin-3-yl)-3,5-difluoro-N-((3S,4S)-4-fluoropiperidin-3-yl)pyridin-2-amine] | 44 | 60 | 2 | < 0.5 | –
CC(O)(c1cn2c(-c3cccc(N[C@H]4CNC[C@@H]4F)n3)cnc2cn1)C(F)(F)F (single isomer, unassigned) [Compound 77] | – | 237 | 3 | 0.9 | 106
FC(F)c1cn2c(-c3cccc(N[C@H]4CNC[C@@H]4F)n3)cnc2cn1 [Compound 16, 6-(6-(difluoromethyl)imidazo[1,2-a]pyrazin-3-yl)-N-((3S,4S)-4-fluoropyrrolidin-3-yl)pyridin-2-amine] | 21 | 60 | 1 | < 0.5 | –
CC(C)(O)c1cn2c(-c3nc(N[C@H]4CNCC[C@@H]4F)c(F)cc3F)cnc2cn1 [Compound 35, 2-(3-(3,5-difluoro-6-(((3S,4S)-4-fluoropiperidin-3-yl)amino)pyridin-2-yl)imidazo[1,2-a]pyrazin-6-yl)propan-2-ol] | 94 | 45 | 0.8 | 1 | –
O=C1CCCN1c1cn2c(-c3nc(N[C@H]4CNCC[C@@H]4F)c(F)cc3F)cnc2cn1 [Compound 107, 1-[3-[3,5-difluoro-6-[[(3S,4S)-4-fluoro-3-piperidyl]amino]-2-pyridyl]imidazo[1,2-a]pyrazin-6-yl]pyrrolidin-2-one] | 21 | 130 | 38 | 1 | –
F[C@H]1CNC[C@@H]1Nc1cccc(-c2cnc3cnc(C4CC4)cn23)n1 [Compound 50, 6-(6-cyclopropylimidazo[1,2-a]pyrazin-3-yl)-N-((3S,4S)-4-fluoropyrrolidin-3-yl)pyridin-2-amine] | 24 | 113 | 0.6 | 0.6 | –
CC1(c2cn3c(-c4cccc(N[C@H]5CNCC56CC6)n4)cnc3cn2)CC1 [Compound 5, (R)-N-(6-(6-(1-methylcyclopropyl)imidazo[1,2-a]pyrazin-3-yl)pyridin-2-yl)-5-azaspiro[2.4]heptan-7-amine] | 2 | 114 | < 0.5 | < 0.5 | –
FC(F)c1cn2c(-c3cccc(N[C@H]4CNCC[C@@H]4F)n3)cnc2cn1 [Compound 25, 6-(6-(difluoromethyl)imidazo[1,2-a]pyrazin-3-yl)-N-((3S,4S)-4-fluoropiperidin-3-yl)pyridin-2-amine] | 9 | 144 | 1 | < 0.5 | –
CC1(c2cn3c(-c4cccc(N[C@@H]5CCNC5)n4)cnc3cn2)CC1 [Compound 3, (R)-6-(6-(1-methylcyclopropyl)imidazo[1,2-a]pyrazin-3-yl)-N-(pyrrolidin-3-yl)pyridin-2-amine] | 6 | 88 | 0.9 | 0.7 | –
CC(C)(O)c1cn2c(-c3nc(N[C@@H]4CCCNC4)c(F)cc3F)cnc2cn1 [Compound 34, (R)-2-(3-(3,5-difluoro-6-(piperidin-3-ylamino)pyridin-2-yl)imidazo[1,2-a]pyrazin-6-yl)propan-2-ol] | 106 | 47 | 2 | 4 | –
CC(O)(c1cn2c(-c3cccc(N[C@H]4CNCC[C@@H]4F)n3)cnc2cn1)C(F)(F)F (single isomer, unassigned) [Compound 80] | 68 | 64 | 3 | 0.6 | –
CC(O)(c1cn2c(-c3cccc(N[C@H]4CNCC[C@@H]4F)n3)cnc2cn1)C(F)(F)F (single isomer, unassigned) [Compound 82] | – | 16 | < 0.5 | < 0.5 | 34
Cn1cc(-c2cn3c(-c4cccc(N[C@H]5CNC[C@@H]5F)n4)cnc3cn2)cn1 [Compound 52, N-((3S,4S)-4-fluoropyrrolidin-3-yl)-6-(6-(1-methyl-1H-pyrazol-4-yl)imidazo[1,2-a]pyrazin-3-yl)pyridin-2-amine] | 11 | 202 | 1 | < 0.5 | –
Cn1cc(-c2cn3c(-c4cccc(N[C@@H]5CCCNC5)n4)cnc3cn2)cn1 [Compound 43, (R)-6-(6-(1-methyl-1H-pyrazol-4-yl)imidazo[1,2-a]pyrazin-3-yl)-N-(piperidin-3-yl)pyridin-2-amine] | 8 | 895 | 12 | < 0.5 | –
CC(C)(C)c1cn2c(-c3cccc(N[C@@H]4CCCNC4)n3)cnc2cn1 [Compound 129, (R)-6-(6-(tert-butyl)imidazo[1,2-a]pyrazin-3-yl)-N-(piperidin-3-yl)pyridin-2-amine] | 33 | 97 | 1 | < 0.5 | –
O=C1NCCN1c1cn2c(-c3cccc(N[C@H]4CNCC[C@@H]4F)n3)cnc2cn1 [Compound 118, 1-(3-(6-(((3S,4S)-4-fluoropiperidin-3-yl)amino)pyridin-2-yl)imidazo[1,2-a]pyrazin-6-yl)imidazolidin-2-one] | 9 | 22 | 4 | 1 | –
CC(C)(C)c1cn2c(-c3nc(N[C@H]4CNC[C@@H]4F)c(F)cc3F)cnc2cn1 [Compound 125] | 163 | 51 | 0.7 | < 0.5 | –
O=C1CCCN1c1cn2c(-c3cccc(N[C@H]4CNC[C@@H]4F)n3)cnc2cn1 [Compound 121, 1-(3-(6-(((3S,4S)-4-fluoropyrrolidin-3-yl)amino)pyridin-2-yl)imidazo[1,2-a]pyrazin-6-yl)pyrrolidin-2-one] | 23 | 207 | 5 | < 0.5 | –
CC(C)(C)c1cn2c(-c3cccc(N[C@H]4CNCC[C@@H]4F)n3)cnc2cn1 [Compound 130, 6-(6-(tert-butyl)imidazo[1,2-a]pyrazin-3-yl)-N-((3S,4S)-4-fluoropiperidin-3-yl)pyridin-2-amine] | 26 | 49 | 3 | < 0.5 | –
CC(O)(c1cn2c(-c3cccc(N[C@@H]4CCCNC4)n3)cnc2cn1)C(F)(F)F (single isomer, unassigned) [Compound 81] | 30 | 31 | < 0.5 | < 0.5 | –
CC(C)(O)c1cn2c(-c3cccc(N[C@H]4CNCC[C@@H]4F)n3)cnc2cn1 [Compound 31, 2-(3-(6-(((3S,4S)-4-fluoropiperidin-3-yl)amino)pyridin-2-yl)imidazo[1,2-a]pyrazin-6-yl)propan-2-ol] | 63 | 23 | < 0.5 | < 0.5 | –
